Where a name gives a salt, the structure may show the parent alone. Read-outs that look alike come from different tables or passages of the source.
How the values were obtained:
[1] = tested on: Bacillus subtilis PCI 219; experiment: In vitro antibacterial activity, MIC (standard strain); assay type: cell-based; conditions: PCI219; Bacillus subtilis PCI 219; 10^6 cells/ml; standard strain; read-out: MIC
[2] = tested on: Staphylococcus aureus 209 P; experiment: as above; assay type: cell-based; conditions: Staphylococcus aureus 209 P; 10^6 cells/ml; standard strain; read-out: MIC
[3] = tested on: S. aureus IID 670 (Terajima); experiment: as above; assay type: cell-based, Staphylococcus aureus; conditions: Staphylococcus aureus, IID670, S. aureus IID 670 (Terajima); 10^6 cells/ml; standard strain; read-out: MIC
S. epidermidis IID 866 = experiment: as above; assay type: cell-based; conditions: Staphylococcus epidermidis, IID866, S. epidermidis IID 866; 10^6 cells/ml; standard strain; read-out: MIC
S. pneumoniae IID 552 = experiment: as above; assay type: cell-based; conditions: Streptococcus pneumoniae, IID552; S. pneumoniae IID 552; 10^6 cells/ml; standard strain; read-out: MIC
E. coli ATCC 10536 = experiment: as above; assay type: cell-based; conditions: Escherichia coli, ATCC10536; E. coli ATCC 10536; 10^6 cells/ml; standard strain; read-out: MIC
[4] = tested on: Proteus vulgaris IFO 3167; experiment: as above; assay type: cell-based; conditions: IFO3167; Proteus vulgaris IFO 3167; 10^6 cells/ml; standard strain; read-out: MIC
P. mirabilis IID 994 = experiment: as above; assay type: cell-based; conditions: Proteus mirabilis, IID994; P. mirabilis IID 994; 10^6 cells/ml; standard strain; read-out: MIC
[5] = tested on: Morganella morganii IID 602; experiment: as above; assay type: cell-based; conditions: IID602; Morganella morganii IID 602; 10^6 cells/ml; standard strain; read-out: MIC
[6] = tested on: Enterobacter cloacae IID 977; experiment: as above; assay type: cell-based; conditions: Enterobacter cloacae, IID977, Enterobacter cloacae IID 977; 10^6 cells/ml; standard strain; read-out: MIC
[7] = tested on: Salmonella entritidis IID 604; experiment: as above; assay type: cell-based; conditions: IID604; Salmonella entritidis IID 604; 10^6 cells/ml; standard strain; read-out: MIC
[8] = tested on: Serratia marcescens IID 618; experiment: as above; assay type: cell-based; conditions: Serratia marcescens, IID618, Serratia marcescens IID 618; 10^6 cells/ml; standard strain; read-out: MIC
[9] = tested on: Pseudomonas aeruginosa V-1; experiment: as above; assay type: cell-based; conditions: V1
P. aeruginosa IID 1210 = experiment: as above; assay type: cell-based; conditions: Pseudomonas aeruginosa, IID1210; P. aeruginosa IID 1210; 10^6 cells/ml; standard strain; read-out: MIC
[10] = tested on: Acinetobacter anitratus IID 876; experiment: as above; assay type: cell-based; conditions: Acinetobacter calcoaceticus, IID876, Acinetobacter anitratus IID 876; 10^6 cells/ml; standard strain; read-out: MIC
[11] = tested on: Bacteroides fragilis GM 7000; experiment: as above; assay type: cell-based; conditions: GM7000; Bacteroides fragilis GM 7000; 10^6 cells/ml; standard strain; read-out: MIC
B. fragilis 25285 = experiment: as above; assay type: cell-based, Bacteroides fragilis; conditions: Bacteroides fragilis, 25285, B. fragilis 25285; 10^6 cells/ml; standard strain; read-out: MIC
[12] = tested on: Clostridium perfringens KYA 13123; experiment: microbe, parasite or virus in culture; assay type: cell-based; conditions: KYA13123
C. ramosum = experiment: In vitro antibacterial activity, MIC (standard strain); assay type: cell-based; conditions: Thomasclavelia ramosa; C. ramosum; 10^6 cells/ml; standard strain; read-out: MIC
S. pneumoniae 15 = experiment: In vitro antibacterial activity, MIC (clinical isolates); assay type: cell-based; conditions: Streptococcus pneumoniae; S. pneumoniae 15; 10^6 cells/ml; clinical isolate; read-out: MIC
S. pneumoniae 2054 = experiment: as above; assay type: cell-based; conditions: Streptococcus pneumoniae; S. pneumoniae 2054; 10^6 cells/ml; clinical isolate; read-out: MIC
S. pneumoniae 2950 = experiment: as above; assay type: cell-based; conditions: Streptococcus pneumoniae; S. pneumoniae 2950; 10^6 cells/ml; clinical isolate; read-out: MIC
S. pyogenes 3102 = experiment: as above; assay type: cell-based; conditions: Streptococcus pyogenes; S. pyogenes 3102; 10^6 cells/ml; clinical isolate; read-out: MIC
S. pyogenes 3107 = experiment: as above; assay type: cell-based; conditions: Streptococcus pyogenes; S. pyogenes 3107; 10^6 cells/ml; clinical isolate; read-out: MIC
S. pyogenes 4372 = experiment: as above; assay type: cell-based; conditions: Streptococcus pyogenes; S. pyogenes 4372; 10^6 cells/ml; clinical isolate; read-out: MIC
S. agalactiae 4394 = experiment: as above; assay type: cell-based; conditions: Streptococcus agalactiae; S. agalactiae 4394; 10^6 cells/ml; clinical isolate; read-out: MIC
S. agalactiae 4049 = experiment: as above; assay type: cell-based; conditions: Streptococcus agalactiae; S. agalactiae 4049; 10^6 cells/ml; clinical isolate; read-out: MIC
S. agalactiae 4470 = experiment: as above; assay type: cell-based; conditions: Streptococcus agalactiae; S. agalactiae 4470; 10^6 cells/ml; clinical isolate; read-out: MIC
S. agalactiae 4368 = experiment: as above; assay type: cell-based; conditions: Streptococcus agalactiae; S. agalactiae 4368; 10^6 cells/ml; clinical isolate; read-out: MIC
S. faecalis 214 = experiment: as above; assay type: cell-based; conditions: Enterococcus faecalis; S. faecalis 214; 10^6 cells/ml; clinical isolate; read-out: MIC
S. faecalis 401 = experiment: as above; assay type: cell-based; conditions: Enterococcus faecalis; S. faecalis 401; 10^6 cells/ml; clinical isolate; read-out: MIC
[13] = Pseudomonas aeruginosa V-1, 10^6 cells/ml, standard strain, read-out: MIC

SMILES	MIC [1]	MIC [2]	MIC [3]	MIC (S. epidermidis IID 866)	MIC (S. pneumoniae IID 552)	MIC (E. coli ATCC 10536)	MIC [4]	MIC (P. mirabilis IID 994)	MIC [5]	MIC [6]	MIC [7]	MIC [8]	MIC (P. aeruginosa IID 1210)	MIC [10]	MIC [11]	MIC (B. fragilis 25285)	MIC [12]	MIC (C. ramosum)	MIC (S. pneumoniae 15)	MIC (S. pneumoniae 2054)	also measured
CCNCC1CCN(c2c(F)cc3c(=O)c(C(=O)O)cn(C4CC4)c3c2F)C1 (stereo not drawn) [Example 2, l-Cyclopropyl-7-(3-ethylaminomethyl-l-pyrrolidinyl)-6,8-difluoro-l,4-dihydro-4-oxo-3-quinolinecarboxylic acid hydrochloride]	0.0125 µg/mL	0.025 µg/mL	0.025 µg/mL	0.05 µg/mL	0.1 µg/mL	0.025 µg/mL	0.025 µg/mL	0.05 µg/mL	0.1 µg/mL	0.1 µg/mL	0.05 µg/mL	0.1 µg/mL	3.13 µg/mL	0.05 µg/mL	1.56 µg/mL	0.78 µg/mL	0.39 µg/mL	0.78 µg/mL	0.05 µg/mL	0.1 µg/mL	MIC [9, 13]: 0.78 µg/mL; MIC (S. pneumoniae 2950): 0.1 µg/mL; MIC (S. pyogenes 3102): 0.05 µg/mL; MIC (S. pyogenes 3107): 0.05 µg/mL; MIC (S. pyogenes 4372): 0.1 µg/mL; MIC (S. agalactiae 4394): 0.2 µg/mL; MIC (S. agalactiae 4049): 0.1 µg/mL; MIC (S. agalactiae 4470): 0.1 µg/mL; MIC (S. agalactiae 4368): 0.1 µg/mL; MIC (S. faecalis 214): 0.2 µg/mL; MIC (S. faecalis 401): 0.2 µg/mL
CCNCC1CCN(c2cc3c(cc2F)c(=O)c(C(=O)O)cn3C2CC2)C1.Cl (stereo not drawn) [Example 7, 1-Cyclopropyl-7-(3-ethylaminomethyl-1-pyrrolidinyl)-6-fluoro-1,4-dihydro-4-oxo-3-quinolinecarboxylic acid hydrochloride]	0.025 µg/mL	0.1 µg/mL	0.1 µg/mL	0.05 µg/mL	0.39 µg/mL	0.05 µg/mL	0.05 µg/mL	0.2 µg/mL	0.39 µg/mL	0.39 µg/mL	0.2 µg/mL	0.39 µg/mL	3.13 µg/mL	0.78 µg/mL	25 µg/mL	25 µg/mL	0.2 µg/mL	6.25 µg/mL	0.39 µg/mL	0.39 µg/mL	MIC [9, 13]: 1.56 µg/mL; MIC (S. pneumoniae 2950): 0.39 µg/mL; MIC (S. pyogenes 3102): 0.2 µg/mL; MIC (S. pyogenes 3107): 0.2 µg/mL; MIC (S. pyogenes 4372): 0.2 µg/mL; MIC (S. agalactiae 4394): 0.39 µg/mL; MIC (S. agalactiae 4049): 0.78 µg/mL; MIC (S. agalactiae 4470): 0.39 µg/mL; MIC (S. agalactiae 4368): 0.39 µg/mL; MIC (S. faecalis 214): 0.78 µg/mL; MIC (S. faecalis 401): 0.78 µg/mL
CNCC1CCN(c2cc3c(cc2F)c(=O)c(C(=O)O)cn3C2CC2)C1 (stereo not drawn) [Example 9, 1-Cyclopropyl-6-fluoro-1,4-dihydro-7-(3-methylaminomethyl-l-pyrrolidinyl)-4-oxo-3-quinolinecarboxylic acid hydrochloride]	0.05 µg/mL	0.2 µg/mL	0.2 µg/mL	0.1 µg/mL	0.39 µg/mL	0.1 µg/mL	0.1 µg/mL	0.39 µg/mL	0.78 µg/mL	0.39 µg/mL	0.2 µg/mL	0.39 µg/mL	3.13 µg/mL	0.78 µg/mL	25 µg/mL	25 µg/mL	1.56 µg/mL	12.5 µg/mL	0.39 µg/mL	0.78 µg/mL	MIC ([9]; Pseudomonas aeruginosa): 1.56 µg/mL; MIC (S. pneumoniae 2950): 0.78 µg/mL; MIC (S. pyogenes 3102): 0.1 µg/mL; MIC (S. pyogenes 3107): 0.1 µg/mL; MIC (S. pyogenes 4372): 0.2 µg/mL; MIC (S. agalactiae 4394): 0.78 µg/mL; MIC (S. agalactiae 4049): 0.78 µg/mL; MIC (S. agalactiae 4470): 0.39 µg/mL; MIC (S. agalactiae 4368): 0.2 µg/mL; MIC (S. faecalis 214): 0.39 µg/mL; MIC (S. faecalis 401): 0.78 µg/mL
